The structures appear in SMILES notation.

The experiment concerns GFP-SOD1 mutant aggregation, cell imaging. Nature of the experiment: inhibitors of mutant SOD1 aggregation, cell-based (AID 1613).
As to `C[C@]12CCC3C(CC[C@]4(O)C[C@@H](O)CC[C@]34C=O)[C@@]1(O)CCC2C1=CC(=O)OC1` (some centres undefined), the 50% effective concentration (EC50) is 5 µM.

As for `C[C@@H]1C[C@@H]([C@H](O)CC2CC(=O)NC(=O)C2)C(=O)[C@@H](C)C1`, the half-maximal effective concentration (EC50) was determined as 2 µM.

For the molecule `C[C@H]1O[C@@H](O[C@H]2[C@@H](O)C[C@H](O[C@H]3[C@@H](O)C[C@H](O[C@H]4CC[C@]5(C)C6C[C@@H](O)[C@]7(C)[C@@H](C8=CC(=O)OC8)CC[C@]7(O)C6CC[C@@H]5C4)O[C@@H]3C)O[C@@H]2C)C[C@H](O)[C@@H]1O` (some centres undefined), the concentration for a half-maximal effect (EC50) stood at 20 µM.

`C[C@H]1O[C@@H](O[C@H]2[C@@H](O)C[C@H](O[C@H]3[C@@H](O)C[C@H](O[C@H]4CC[C@]5(C)C6CC[C@]7(C)[C@@H](C8=CC(=O)OC8)CC[C@]7(O)C6CC[C@@H]5C4)O[C@@H]3C)O[C@@H]2C)C[C@H](O)[C@@H]1O` (some centres undefined) yielded an EC50 of 20 µM.

In the case of `CCN(CC)CCNc1ccc(CO)c2sc3ccccc3c(=O)c12`, the EC50 stood at 20 µM.

The molecule `CC(=O)O[C@H]1C(=O)[C@@]2(C)C([C@H](OC(=O)c3ccccc3)[C@]3(O)C[C@H](OC(=O)[C@H](O)[C@@H](NC(=O)c4ccccc4)c4ccccc4)C(C)=C1C3(C)C)[C@]1(OC(C)=O)CO[C@@H]1C[C@@H]2O` (some centres undefined) registered an EC50 of 5 µM.

Molecule `COc1ccc(C[C@H]2NC[C@H](O)[C@H]2OC(C)=O)cc1` showed an EC50 of 2 µM.

Regarding `CO[C@H]1[C@H](O)[C@H](O[C@H]2CC[C@]3(C)C4CC[C@]5(C)C(C6=CC(=O)OC6)CC[C@]5(O)C4CC[C@@H]3C2)O[C@@H](C)[C@@H]1O` (some centres undefined), the EC50 is 5 µM.

For `CO[C@H]1[C@H](O)[C@@H](O[C@H]2CC[C@]3(C=O)C4CC[C@]5(C)[C@@H](C6=CC(=O)OC6)CC[C@]5(O)C4CC[C@@H]3C2)O[C@@H](C)[C@@H]1O` (some centres undefined), the EC50 was determined as 5 µM.

With `CC(=O)O[C@H]1C[C@H](O[C@H]2[C@@H](O)C[C@H](O[C@H]3[C@@H](O)C[C@H](O[C@H]4CC[C@@]5(C)C(CCC6C5C[C@@H](O)[C@]5(C)[C@@H](C7=CC(=O)OC7)CC[C@]65O)C4)O[C@@H]3C)O[C@@H]2C)O[C@H](C)[C@H]1O[C@@H]1O[C@H](CO)[C@@H](O)[C@H](O)[C@H]1O` (some centres undefined), the EC50 was 5 µM.

Turning to `CC[C@H]1CN2CCc3cc(OC)c(OC)cc3C2C[C@@H]1CC1NCCc2cc(OC)c(OC)cc21` (some centres undefined), the 50% effective concentration (EC50) is 5 µM.

For `C[n+]1c2cc(N)ccc2cc2ccc(N)cc21`, the EC50 was 10 µM.

In turn, `CC[C@@]1(O)C(=O)OCc2c1cc1n(c2=O)Cc2cc3ccccc3nc2-1` showed a half-maximal effective concentration (EC50) of 15 µM.

In turn, `O=C1c2c(O)ccc(O)c2C(=O)c2c(NCCNCCO)ccc(NCCNCCO)c21` gave a concentration for a half-maximal effect (EC50) of 5 µM.

Usually EC50 stands for the midpoint of the concentration-response curve.

(Values after PubChem BioAssay AID1613 (NINDS Approved Drug Screening Program, 2009).)
